Laboratory results reported in US8093282B2, “Therapeutic N-aryl or N-heteroaryl pyrazolidine and pyrazolidinone derivatives” (Allergan, Inc., priority 2008, dated 2012).

System: lashes and adjacent hairs of the treated eye
Assay: Eyelash / hair growth observed in glaucoma patients treated in one eye
Format: in vivo, human
Details: glaucoma patient treated in only one eye
Description: In the course of treating patients having glaucoma, treatment may only be appropriate in one eye. […] The lash appearance on the lids of the treated eyes would have appeared quite attractive if it represented a bilateral phenomenon. As a result of its asymmetric nature, the long lashes on one side could be construed as disturbing from a cosmetic standpoint. A systemic examination was preformed as a result of the asymmetric phenomenon. It soon became apparent that this altered appearance was not an isolated finding. […] Definite differences could be identified to varying degrees in the lashes and adjacent hairs of all patients who were taking the drug on a unilateral basis for longer than 6 months.
The changes in the lashes were apparent on gross inspection in several patients once attention was focused on the issue. In those with light colored hair and lashes, the differences were only seen easily with the aid of the high magnification and lighting capabilities of the slit lamp biomicroscope. In the course of glaucoma follow-up examination, attention is generally immediately focused on the eye itself. As a result of the high power magnification needed only one eye is seen at a time and the eye is seen at a high enough power that the lashes are not in focus. […]

CCNC(=O)CCC/C=C\C[C@@H]1[C@@H](/C=C/[C@@H](O)CCc2ccccc2)[C@H](O)C[C@@H]1O [bimatoprost]
lash appearance in the treated eye versus the non-treated eye: longer, thicker, and fuller
